Test results as given in the NIST ThermoML archive (doi:10.1016/j.jct.2011.06.024).

Experiment: mn = molality of the nth substance listed, in mol/kg
Settings: 101 kPa, Liquid, Capillary tube (Ostwald / Ubbelohde) method

CCCCCCCCCCCCOS(=O)(=O)[O-].[Na+] [sodium dodecyl sulfate] + O
viscosity [mPa·s]
Settings	303.15 K	308.15 K	313.15 K	318.15 K	323.15 K
m1 = 0.007	0.8017	0.7228	0.6582	0.6009	0.5513
m1 = 0.01	0.8025	0.7285	0.6577	0.6026	0.5575

[Cl-].[K+] [potassium chloride] + O
viscosity [mPa·s]
Settings	m1 = 0.003209	m1 = 0.003885	m1 = 0.004985	m1 = 0.006959	m1 = 0.008075	m1 = 0.009511
303.15 K	0.8063	0.8068	0.8076	0.8088	0.8094	0.8102
308.15 K	0.7279	0.7284	0.7292	0.7304	0.7286	0.7316
313.15 K	0.6616	0.6621	0.6629	0.6641	0.6647	0.6655
318.15 K	0.6045	0.6051	0.6059	0.6071	0.6077	0.6086
323.15 K	0.5552	0.5557	0.5566	0.5578	0.5584	0.5592

[Cl-].[Cl-].[Mg+2] [magnesium chloride] + O
viscosity [mPa·s]
Settings	m1 = 0.003022	m1 = 0.004	m1 = 0.005	m1 = 0.007	m1 = 0.007995	m1 = 0.008994
303.15 K	0.8039	0.8323	0.8483	0.8693	0.8885	0.9112
308.15 K	0.7343	0.7545	0.7723	0.7896	0.8071	0.8198
313.15 K	0.6675	0.6865	0.7031	0.7195	0.7366	0.7601
318.15 K	0.6213	0.6301	0.6466	0.6648	0.6804	0.6989
323.15 K	0.5775	0.5975	0.6196	0.6244	0.6481	0.6697

O=[N+]([O-])[O-].O=[N+]([O-])[O-].[Mg+2] [magnesium nitrate] + O
viscosity [mPa·s]
Settings	m1 = 0.003029	m1 = 0.004005	m1 = 0.005059	m1 = 0.007003	m1 = 0.008141	m1 = 0.009263
303.15 K	0.8036	0.8293	0.8454	0.8685	0.8903	0.9014
308.15 K	0.7327	0.751	0.7688	0.7895	0.8097	0.8156
313.15 K	0.6665	0.6847	0.7021	0.721	0.7356	0.7458
318.15 K	0.6195	0.6272	0.6449	0.6635	0.6813	0.6958
323.15 K	0.5575	0.5773	0.5927	0.6106	0.6176	0.6305

O=[N+]([O-])[O-].[K+] [potassium nitrate] + O
viscosity [mPa·s]
Settings	m1 = 0.003067	m1 = 0.003997	m1 = 0.005019	m1 = 0.006997	m1 = 0.008615	m1 = 0.01033
303.15 K	0.8152	0.8175	0.819	0.8217	0.8244	0.8263
308.15 K	0.7365	0.7382	0.731	0.7433	0.7449	0.7472
313.15 K	0.6691	0.6705	0.6722	0.6752	0.6775	0.6782
318.15 K	0.6139	0.6157	0.6178	0.621	0.6231	0.6253
323.15 K	0.5658	0.568	0.5701	0.5737	0.5761	0.5785
